Measurements: patent US7423019B2, “Agent for inducing conversion of intestinal cells into insulin-producing cells and antidiabetic drug” (Ajinomoto Co., Inc., priority 2003, dated 2008)
Entries after “also recorded” stand apart in the source; their conditions may differ.

Key:
intestinal cells = experiment: Primary culture of embryonal mouse intestinal cells, double stain with antibodies to insulin and glucagon; format: cell-based; conditions: 10 nmol/l, cultured 8 days; for generation of insulin-positive cells in intestinal cells: 17.5 day-old embryonal mouse cells
Description: (§1) Cells originating from various kinds of tissues of a 17.5 day-old embryonal mouse were divided into a group added with GLP-1(1-37) (10 nmol/l) or GLP-1(7-37) (10 nmol/l) and a non-addition control group, and were then cultured. After the cells had been cultured for 8 days, a double stain was performed using antibodies to insulin and glucagon. Specifically, the process was performed as follows.
(§2) Specimens of pancreas, liver, stomach, duodenum, and small intestine (including the jejunum, ileum, and colon) tissues were collected from a 17.5 day-old C57BL/6 embryonal mouse under a microscope. Then, those tissues were immersed in a Hanks solution (Hanks Balanced Solution, Gibco BRL, Co., Ltd., without containing Ca) containing 5 mM of CaCl2 (pH 7.4) and 0.1% of collagenase, and were then incubated at 37° C. for 10 to 20 minutes, followed by gently pipetting for digestion, respectively.
The obtained cells were washed with a culture medium and then inoculated in a 6-well plate for tissue culture at a cell density of 5×10^4 cells/cm^2. After 24 hours from the start of the culture, GLP-1(1-37) or GLP-1(7-37) was added to the culture. Furthermore, after the cells had been continuously cultured for 8 days, the cells were washed three times with phosphate buffer (hereinafter, referred to as “PBS”) and then fixed by immersing in a 4% paraformaldehyde-phosphate buffer for 5 minutes and a 25% acetone/methanol solution for 1 minute. It should be noted that GLP-1(1-37) and GLP-1(7-37) were purchased from SIGMA.
Subsequently, each well was washed with 0.05% Tween 20/PBS, followed by immersing in 0.2% Triton X100 for 1 hour. After that, anti-insulin goat antibody (Santa Cruz) and anti-glucagon mouse antibody (Sigma) were added to each well, and the whole was incubated at 4° C. for 16 hours, followed by washing the well. Then, Alexa 488-binding anti-goat IgG donkey antibody (Molecular Probes) or Cy3-binding anti-mouse IgG donkey antibody (Jackson Immuno Research Laboratories Inc.) was added to each well, and the whole was then incubated at 4° C. for 4 hours. […]

[1] = tested on: pancreas, stomach, liver, and duodenal cells; experiment: Primary culture of embryonal mouse pancreas, stomach, liver and duodenal cells, double stain with antibodies to insulin and glucagon; format: cell-based; conditions: 10 nmol/l, cultured 8 days
Description: as §1, §2
The obtained cells were washed with a culture medium and then inoculated in a 6-well plate for tissue culture at a cell density of 5×10^4 cells/cm^2. After 24 hours from the start of the culture, GLP-1(1-37) or GLP-1(7-37) was added to the culture. […]

GLP-1R = experiment: Experiment of inhibiting GLP-1 function with exendin (9-39), RT-PCR in jejunal cells; format: cell-based, mouse; conditions: 8 days
Description: Jejunal cells were cultured by the same way as that of paragraph <1>, except that 0, 10, 100, or 1,000 nmol/l of exendin (9-39), which was a GLP-1R antagonist, was simultaneously added together with GLP-1(1-37) (10 nmol/l). Then, the expression amounts of the insulin gene and other various kinds of genes were analyzed (a culture period of 8 days).

jejunum = experiment: Organ culture of embryonal mouse jejunum, insulin in the culture medium; format: cell-based; conditions: 50 nM GLP-1(1-37) with 50 nM PDGF, jejunum of 14.5-day embryonal mouse in collagen gel
Description: (§3) The jejunum collected from a 14.5-day embryonal mouse was embedded in type I collagen gel (Nitta Gelatin Inc.) and was then grown in organ culture in the presence of 50 nM GLP-1(1-37) and 50 nM PDGF (Platelet Derived Growth Factor). The amount of insulin in the culture medium was determined using a mouse insulin-detecting kit (Shibayagi) according to the attached protocol.

jejunal cells = experiment: Comparison between GLP-1 and other growth factors, RT-PCR in jejunal cells; format: cell-based, mouse; conditions: GLP-1(1-37) 10 nm/l with activin A, beta cellulin, HGF, EGF; 8 days
Description: In the presence or absence of GLP-1(1-37) (10 nm/l), jejunal cells were cultured by the same way as that of paragraph <1>, except that activin A, beta cellulin, hepatocyte growth factor (HGF), and epidermal growth factor (EGF), which had been reported to control the growth and differentiation of secretory cells in the pancreas, were added. Then, the expression amounts of various kinds of genes were analyzed (a culture period of 8 days).

[2] = tested on: intestinal epithelium cells; experiment: In vivo GLP-1(1-37) administration to pregnant mouse, insulin/glucagon immunostain of newborn intestine sections; conditions: 10 nmol i.p. to pregnant mouse daily, embryonal day 10.5 to 17.5
Description: GLP-1(1-37) (10 nmol) was intraperitoneally injected to a pregnant mouse at the same time every day over a seven-day embryonal period from day 10.5 to 17.5. After birth, tissue sections from the small and large intestine of a newborn mouse were double-stained using antibodies to insulin and glucagon. Specifically, the double stain was performed as follows.
Each tissue of the small intestine (including jejunum and ileum) and the large intestine was immersed overnight in a 4% paraformaldehyde-phosphate buffer at 4° C., followed by embedding in O.C.T. compound to prepare section samples. The section samples were dried and fixed with acetone. Subsequently, the section samples were dried overnight at −20° C. and then washed with PBS-Tween 20, followed by immersing in 0.2% Triton X100 for 1 hour. After that, using anti-insulin goat antibody (Santa Cruz) or anti-glucagon mouse antibody (Sigma), and Alexa 488-binding anti-goat IgG donkey antibody or Cy3-binding anti-mouse IgG donkey antibody, the immunostain of insulin and glucagon was carried out, respectively.

STZ diabetes model rat = experiment: Blood sugar decrease effect on STZ diabetes model rat; format: in vivo
Description: GLP-1 (1-37) (80 μg/head) or PBS was intraperitoneally administered to a Wistar male rat once a day over a ten-day period from day 2-12 after birth. On the 7th day of the administration (9-day old), 75 mg/kg of STZ was subcutaneously administered to induce diabetes. In order to prepare normal controls, some PBS-administered rats were administered citrate buffer instead of STZ. Subsequently, the rats were allowed to ingest feed and water freely. In the 42nd day, blood of each rat was drawn from the tail vein and the blood sugar level was measured. The measurement of the blood sugar level was performed using the whole blood sample by the glucose oxidase method in accordance with a general method.

[3] = background art; cited from earlier work
[4] = tested on: cultured intestinal cells; experiment: RT-PCR gene expression in organ culture of jejunum, concentration-dependent effects; format: cell-based, mouse; conditions: 8 days
Description: Using a quantitative PCR method, the effects of GLP-1(1-37) on the cultured intestinal cells were analyzed in detail as described below.
Four concentrations of GLP-1(1-37), 0, 5, 10, and 50 nmol/l, were prepared and the organ culture of jejunum was performed by the same way as that of Example 3. After the jejunum had been cultured for 8 days, analyzed using the RT-PCR were the expression amounts of insulin genes (preproinsulin I and preproinsulin II), transcription factor group [neurogenin 3 (ngn3), neuroD/BETA 2, pax-4, Nkx 6.1, and hepatocyte nuclear factor 6 (HNF-6)] that controls the differentiation of secretory cells in the pancreas, a GLP-1 receptor (GLP-1 R), preproglucagon, pancreas duodenal homobox 1 (pdx-1), and hypoxanthine phosphoribosyl transferase (HPRT) as a positive control.
The RT-PCR was performed according to the method described in the literature (Hepatology, 32: 1230-1239) using primers. The primers used herein were as follows.
GLP-1R (SEQ ID NOS: 3 and 4), preproinsulin 1 (SEQ ID NOS: 5 and 6), preproinsulin II (SEQ ID NOS: 7 and 8), preproglucagon (SEQ ID NOS: 9 and 10), pdx-1 (SEQ ID NOS: 11 and 12), ngn3 (SEQ ID NOS: 13 and 14), neuroD (SEQ ID NOS: 15 and 16), pax-4 (SEQ ID NOS: 17 and 18), Nkx 6.1 (SEQ ID NOS: 19 and 20), HNF-6 (SEQ ID NOS: 21 and 22), and HPRT (SEQ ID NOS: 23 and 24).

diabetes model mouse = experiment: Transplanting cultured jejunum into STZ diabetes model mouse, blood sugar level; format: in vivo
Description: as §3
The jejunum at the second day from the start of the organ culture was transplanted in the abdominal cavity of a diabetes model mouse. The mouse was changed to a type I diabetes model by the administration of 200 mg/kg streptozotocin (hereinafter, referred to as “STZ”) three days before the transplantation, and the blood sugar level of the mouse was 300 to 350 mg/dl. Similarly, jejunal cells cultured in the absence of GLP-1 (1-37) were transplanted into a diabetes model mouse.

[5] = tested on: preproinsulin I and preproinsulin II mRNA; experiment: Insulin gene expression in organs of GLP-1(1-37)-administered STZ diabetes model rat (RT-PCR); format: in vivo; conditions: 80 μg/head i.p. once a day for ten days, 42nd day
Description: GLP-1(1-37) was confirmed to have the blood sugar decrease effect, so that the presence or absence of insulin production in the intestine of the GLP-1(1-37) administered group was determined by the method described below. GLP-1(1-37)(80 μg/head) or PBS was intraperitoneally administered to each of 6 Wistar male rats once a day over a ten-day […] period from day 2 to 12. On the 7th day of the administration (9-day old), 75 mg/kg of STZ was subcutaneously administered to induce diabetes. In order to prepare normal controls, some PBS-administered rats were administered citrate buffer instead of STZ. Subsequently, the rats were allowed to ingest feed and water freely. On the 42nd day, autopsy was performed to collect the pancreas, stomach, intestine, and lung. After RNA was prepared from each organ using ISOGEN (NIPPONGENE), mRNA of preproinsulin I and mRNA of preproinsulin II were quantified by the RT-PCR method. Oligonuculeotides shown in SEQ ID NOS: 24 and 25 were used for preproinsulin I, and oligonuculeotides shown in SEQ ID NOS: 26 and […] were used for preproinsulin II as PCR primers.

[6] = STZ mouse transplanted with jejunal cells treated with GLP-1(1-37), baseline 300 to 350 mg/dl

With “GLP-1(7-37) (HAEGTFTSDVSSYLEGQAAKEFIAWLVKGRG; Glucagon-like peptide 1; UniProt P01275 98-128, looked up, fragment) [reference compound]” the “generation of insulin-positive cells in intestinal cells” value (intestinal cells) was “can not effect on the induction” and the “number of insulin-positive cells and glucagon-positive cells versus non-addition group” value [1] was “no difference”.
With exendin (9-39) the “expression of preproinsulin I, preproinsulin II, and ngn3” value (GLP-1R; exendin (9-39) 10, 100 or 1,000 nmol/l added together with GLP-1(1-37) 10 nmol/l) was “hardly observed” and the “expression of preproglucagon and pdx-1” value (GLP-1R; exendin (9-39) added together with GLP-1(1-37) 10 nmol/l) was “not influenced”.
For “GLP-1(1-37): 37-amino acid peptide having the amino acid sequence from position 92 to position 128 of a preproglucagon peptide; purchased from SIGMA (HDEFERHAEGTFTSDVSSYLEGQAAKEFIAWLVKGRG; Glucagon-like peptide 1; UniProt P01275 92-128, looked up, fragment)”, the “insulin secretion into the culture medium” value (jejunum) was “insulin secretion was observed”, the “expression of preproglucagon and pdx-1” value (jejunal cells) was “no change” and the “expression of preproinsulin I, preproinsulin II, and ngn3” value (jejunal cells) was “high expression”. For the same substance, the “insulin-positive intestinal epithelium cells in small and large intestine of newborn mouse” value [2] was “many insulin-positive intestinal epithelium cells were observed”, the “number of insulin positive cells, small intestine compared with large intestine” value [2] was “higher” and the “blood sugar level compared to diabetes control group” value (STZ diabetes model rat; 80 μg/head i.p. once a day for ten days, 42nd day) was “decreased significantly”. The blood sugar level (STZ diabetes model rat; 80 μg/head i.p. once a day, day 2-12 after birth, STZ 75 mg/kg s.c., measured 42nd day, n = 6) was 430 ± 89 ^##, the activity as incretin [3] was “weak activity” and the “expression of GLP-1R, preproglucagon and pdx-1 versus non addition group” value ([4]; 0, 5, 10, 50 nmol/l) was “no change in expression”. The “expression of transcription factor group controlling differentiation of secretory cells in the pancreas” value ([4]; 0, 5, 10, 50 nmol/l) was “increase in expression”, the “expression of the insulin gene (preproinsulin I, preproinsulin II)” value ([4]; 5 nmol/l, FIG. 1) was “expression of the insulin gene was observed” and the “glucagon staining of the insulin-positive cells” value (intestinal cells) was “strongly glucagon-positive”. The “generation of insulin-positive cells in intestinal cells” value (intestinal cells) was “insulin-positive cells were only observed; also recorded: effects on the induction”, the “number of insulin-positive cells and glucagon-positive cells versus non-addition group” value [1] was “no difference” and the “change of blood sugar level after transplantation” value (diabetes model mouse; STZ mouse (300 to 350 mg/dl) transplanted with jejunal cells treated with GLP-1(1-37)) was “decrease in blood sugar level was observed”. The “blood sugar level after eight weeks from the transplantation” value (diabetes model mouse; [6]) was 75 to 100 mg/dL, the “blood sugar level after four weeks from the transplantation” value (diabetes model mouse; [6]) was 125 to 225 mg/dL and the “expression of preproinsulin genes in the pancreas, stomach, and lung” value [5] was “no expression was observed”. For the same substance, the “expressions of preproinsulin I gene and preproinsulin II gene in the intestine” value [5] was “significantly increased”.
